Columns and labels:
Format in all cases: in vivo, human
[1] = Urine beta-2 microglobulin (exploratory renal toxicity biomarker), T2DM subjects; settings: one T2DM subject
Protocol: Urine beta-2 microglobulin levels, an exploratory biomarker that was measured as a potential early indicator of renal toxicity, were within the normal range at both baseline and after treatment for all subjects except for two subjects with diabetes.

[2] = Adverse events after single oral doses, healthy subjects (Part A); settings: for Blood creatine phosphokinase increased (adverse events reported by >1 subject in total) / Diarrhea (drug-related adverse events) / Dizziness (drug-related adverse events) / Headache (adverse events reported by >1 subject in total) / Headache (drug-related adverse events) / Hot flush (drug-related adverse events) / At least one adverse event: healthy subjects; for At least one adverse event: n = 8
Protocol: This double-blind, randomized, placebo-controlled, single escalating-dose crossover study was conducted in two parts: Part A consisted of a randomized, dose-escalation in healthy subjects; Part B was of similar design, but conducted in subjects with T2DM and included an evaluation of pharmacodynamics using a 50 g oral glucose tolerance test (OGTT).
Ten healthy subjects were evaluated in 5 study sessions, each separated by approximately 2 weeks. At each study session, subjects received either an oral dose of remogliflozin etabonate or placebo after an overnight fast. Remogliflozin etabonate doses were 20 mg, 50 mg, 150 mg, 500 mg and 1000 mg. Over the course of participation in the study, each subject received 4 of the 5 active remogliflozin etabonate doses and 1 dose of placebo (4:1 active to placebo ratio per treatment period). The available safety and PK results from each dosing period were evaluated before proceeding to the next dose level.
(§1) All subjects were admitted to the unit two nights prior to receiving study drug to establish baseline safety parameters and fluid intake levels over a 36 h period. Subjects remained in the unit for at least 24 h after doses were administered for monitoring of clinical laboratory parameters exploratory biomarkers, vital signs, ECGs and adverse events. While confined to the clinical research unit, all subjects received meals standardized with respect to calories, fat, protein, carbohydrate, and sodium content; however, detailed dietary information was not captured in this study. In Part A, subjects were dosed following an overnight fast; lunch and dinner were provided at 4 and 10 h after dosing, respectively. Fifteen minutes after dosing in each treatment period in Part B, a fasting OGTT was performed using 50 g glucose (administered as 50 g Glucola™). A 50 g glucose load was chosen since the OGTT was being performed in subjects already known to have diabetes. The glucose drink was consumed by subjects within approximately 5 minutes. Blood samples for the measurement of glucose, insulin, and intact glucagon-like peptide 1 (GLP-1) were collected for 24 hours following dose administration. Provided that there were no safety or tolerability concerns, subjects were released from the clinic on day 2 of each treatment period until their return for the next treatment or follow-up period. Each subject was involved in the study for approximately 8 weeks (from screening to follow-up).

[3] = Plasma glucose, insulin and intact GLP-1 after 50 g OGTT, T2DM subjects; settings: for median baseline adjusted AUC(0–4) for plasma GLP-1 following an OGTT: placebo 6.36
Protocol: as §1
Blood samples for glucose were taken at 0 (pre-dose), and 1, 2, 4, 8 and 12 h after dosing in each treatment period (Part A). For Part B, blood samples for glucose, insulin and GLP-1 were taken at check-in on day -2, and at 0 h (pre-dose), and 0.5, 1, 1.5, 2, 4 h (prior to lunch), 4.5, 5, 6, 8, 10, 12 and 24 h after dosing on day 1 of each treatment period.
For glucose, plasma was analyzed using a YSI 2300 Glucose Analyzer (Yellow Springs International Life Sciences, Yellow Springs, OH, USA). For insulin, plasma was rapidly prepared and frozen at -70°C until analyzed by LabCorp (San Diego, CA, USA) using a chemiluminescent immunometric assay method (Siemen’s Immulite 2000 analyzer with Immulite Insulin Kit L2KIN2).
For assay of intact GLP-1, blood was collected into a chilled EDTA tube and protease inhibitors (DPP4 inhibitor obtained from EMD Millipore, St. Charles, MO) were immediately added. Samples were then spun down and plasma split into two separate tubes and frozen at -70°C until analyzed by Pathway Diagnostics (Malibu, CA, USA) by ELISA (kit # EGLP-35 K, EMD Millipore). The lowest level of intact GLP-1 this assay can detect is 2 pM (with a minimum plasma sample size of 0.4 mL).

Which results are given for `CCOC(=O)OC[C@H]1O[C@@H](Oc2nn(C(C)C)c(C)c2Cc2ccc(OC(C)C)cc2)[C@H](O)[C@@H](O)[C@@H]1O` [Remogliflozin etabonate, remogliflozin etabonate]?
Time for drug-related beta-2 microglobulin elevation to return to normal ([1]; 500 mg): ≤ 4 days; Urine beta-2 microglobulin, elevation ([1]; 11 days after 500 mg, attributed by investigator to other concomitant disease): 2.5 µg/mL; Urine beta-2 microglobulin, drug-related elevation ([1]; day 1 after 500 mg, normal <0.3 μg/mL): 1.62 µg/mL; Tolerability ([2]; all subjects, single oral doses 20-1000 mg, no deaths, serious adverse events or withdrawals): generally well-tolerated; Blood creatine phosphokinase increased (adverse events reported by >1 subject in total) ([2]; 20 mg single oral dose): 0 n (%); Diarrhea (drug-related adverse events) ([2]; 20 mg single oral dose): 1 (13) n (%); Dizziness (drug-related adverse events) ([2]; 20 mg single oral dose): 0 n (%); Headache (adverse events reported by >1 subject in total) ([2]; 20 mg single oral dose): 1 (13) n (%); Headache (drug-related adverse events) ([2]; 20 mg single oral dose): 1 (13) n (%); Hot flush (drug-related adverse events) ([2]; 20 mg single oral dose): 0 n (%); At least one adverse event ([2]; 20 mg single oral dose): 2 (25) n (%); Blood creatine phosphokinase increased (adverse events reported by >1 subject in total) ([2]; 50 mg single oral dose): 0 n (%); Diarrhea (drug-related adverse events) ([2]; 50 mg single oral dose): 0 n (%); Dizziness (drug-related adverse events) ([2]; 50 mg single oral dose): 0 n (%); Headache (adverse events reported by >1 subject in total) ([2]; 50 mg single oral dose): 1 (13) n (%); Headache (drug-related adverse events) ([2]; 50 mg single oral dose): 1 (13) n (%); Hot flush (drug-related adverse events) ([2]; 50 mg single oral dose): 0 n (%); At least one adverse event ([2]; 50 mg single oral dose): 3 (38) n (%); Blood creatine phosphokinase increased (adverse events reported by >1 subject in total) ([2]; 150 mg single oral dose): 0 n (%); Diarrhea (drug-related adverse events) ([2]; 150 mg single oral dose): 0 n (%); Dizziness (drug-related adverse events) ([2]; 150 mg single oral dose): 0 n (%); Headache (adverse events reported by >1 subject in total) ([2]; 150 mg single oral dose): 0 n (%); Headache (drug-related adverse events) ([2]; 150 mg single oral dose): 0 n (%); Hot flush (drug-related adverse events) ([2]; 150 mg single oral dose): 0 n (%); At least one adverse event ([2]; 150 mg single oral dose): 1 (13) n (%); Blood creatine phosphokinase increased (adverse events reported by >1 subject in total) ([2]; 500 mg single oral dose): 1 (13) n (%); Diarrhea (drug-related adverse events) ([2]; 500 mg single oral dose): 0 n (%); Dizziness (drug-related adverse events) ([2]; 500 mg single oral dose): 0 n (%); Headache (adverse events reported by >1 subject in total) ([2]; 500 mg single oral dose): 2 (25) n (%); Headache (drug-related adverse events) ([2]; 500 mg single oral dose): 0 n (%); Hot flush (drug-related adverse events) ([2]; 500 mg single oral dose): 0 n (%); At least one adverse event ([2]; 500 mg single oral dose): 3 (38) n (%); Blood creatine phosphokinase increased (adverse events reported by >1 subject in total) ([2]; 1000 mg single oral dose): 0 n (%); Diarrhea (drug-related adverse events) ([2]; 1000 mg single oral dose): 0 n (%); Dizziness (drug-related adverse events) ([2]; 1000 mg single oral dose): 1 (13) n (%); Headache (adverse events reported by >1 subject in total) ([2]; 1000 mg single oral dose): 1 (13) n (%); Headache (drug-related adverse events) ([2]; 1000 mg single oral dose): 1 (13) n (%); Hot flush (drug-related adverse events) ([2]; 1000 mg single oral dose): 1 (13) n (%); At least one adverse event ([2]; 1000 mg single oral dose): 1 (13) n (%); Increases in plasma glucose following an OGTT ([3]; 50 mg RE vs placebo, altered little from 50 mg to 500 mg): clearly attenuated; median baseline adjusted AUC(0–4) for plasma GLP-1 following an OGTT ([3]; 50 mg): -8.85 pM·h; median baseline adjusted AUC(0–4) for plasma GLP-1 following an OGTT ([3]; 500 mg): -1.95 pM·h; Plasma insulin following the glucose load ([3]; 50 and 500 mg): no clear trends

From paper PMC3700763, “First human dose-escalation study with remogliflozin etabonate, a selective inhibitor of the sodium-glucose transporter 2 (SGLT2), in healthy subjects and in subjects with type 2 diabetes mellitus” (BMC Pharmacology & Toxicology, 2013)
